US20260250290A1 (BRISTOL-MYERS SQUIBB COMPANY, priority 2023, published 2026)
Where a name gives a salt, the structure may show the parent alone.

biological target: T1, full length SGK1 (Homo sapiens, UniProt O00141); assay: SGK1 inhibition Assay A (Caliper LabChip electrophoretic separation of fluorescent peptide substrate and phosphorylated product); type: biochemical; settings: Assay A; 20 μM ATP, 40 min incubation; read-out: SGK1 IC50
T1 construct: 125 μM full length SGK1 (Life Technologies Part #PR7358A); purchased Life Technologies PR7358A
T1 sequence (O00141 1-431): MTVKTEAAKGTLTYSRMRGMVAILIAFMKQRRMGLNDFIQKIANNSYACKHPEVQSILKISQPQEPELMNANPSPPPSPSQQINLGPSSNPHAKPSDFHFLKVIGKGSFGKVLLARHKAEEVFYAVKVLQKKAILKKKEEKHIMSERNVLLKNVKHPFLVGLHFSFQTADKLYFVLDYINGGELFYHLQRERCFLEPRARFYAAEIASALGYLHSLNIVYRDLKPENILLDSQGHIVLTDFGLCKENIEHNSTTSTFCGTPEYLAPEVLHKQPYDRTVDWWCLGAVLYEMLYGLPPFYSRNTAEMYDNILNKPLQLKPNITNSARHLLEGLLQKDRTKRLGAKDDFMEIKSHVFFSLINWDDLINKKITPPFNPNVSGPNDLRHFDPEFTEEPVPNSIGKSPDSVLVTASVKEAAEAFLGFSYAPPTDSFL

Structure (SMILES)	IC50 [µM]
CS(=O)(=O)c1ccc(-c2cc(N3CCC[C@@H](NC(=O)c4ccnnc4)C3)c3c(N)ncnn23)cc1 [Example 30, (R)-N-(1-(4-amino-7-(4-(methylsulfonyl)phenyl)pyrrolo[2,1-f][1,2,4]triazin-5-yl)piperidin-3-yl)pyridazine-4-carboxamide]	0.065
CS(=O)(=O)c1ccc(-c2cc(N3CCC[C@@H](NC(=O)c4ccc(F)cc4)C3)c3c(N)ncnn23)cc1 [Example 25, (R)-N-(1-(4-amino-7-(4-(methylsulfonyl)phenyl)pyrrolo[2,1-f][1,2,4]triazin-5-yl)piperidin-3-yl)-4-fluorobenzamide]	0.022
COCCNC(=O)c1ccc(-c2cc(N3CCC[C@@H](NC(=O)c4ccc(Cl)s4)C3)c3c(N)ncnn23)cc1 [Example 224, (R)-N-(1-(4-amino-7-(4-((2-methoxyethyl)carbamoyl)phenyl)pyrrolo[2,1-f][1,2,4]triazin-5-yl)piperidin-3-yl)-5-chlorothiophene-2-carboxamide]	0.011
CS(=O)(=O)c1ccc(-c2cc(N3CCC[C@@H](NC(=O)C4CCOCC4)C3)c3c(N)ncnn23)cc1 [Example 17, (R)-N-(1-(4-amino-7-(4-(methylsulfonyl)phenyl)pyrrolo[2,1-f][1,2,4]triazin-5-yl)piperidin-3-yl)tetrahydro-2H-pyran-4-carboxamide, TFA]	1.3
CS(=O)(=O)c1ccc(-c2cc(N3CCC[C@@H](NC(=O)c4ccns4)C3)c3c(N)ncnn23)cc1 [Example 41, (R)-N-(1-(4-amino-7-(4-(methylsulfonyl)phenyl)pyrrolo[2,1-f][1,2,4]triazin-5-yl)piperidin-3-yl)isothiazole-5-carboxamide, TFA]	0.005
CN(C)CCOc1cc(Cl)sc1C(=O)N[C@@H]1CCCN(c2cc(-c3ccc4ncnn4c3)n3ncnc(N)c23)C1 [Example 193, (R)-N-(1-(7-([1,2,4]triazolo{1,5-a]pyridin-6-yl)-4-aminopyrrolo[2,1-f][1,2,4]triazin-5-yl)piperidin-3-yl)-5-chloro-3-(2-(dimethylamino)ethoxy) thiophene-2-carboxamide]	0.025
Nc1ncnn2c(-c3cccc(OC(F)F)c3)cc(N3CCC[C@@H](NC(=O)c4ccc(Cl)s4)C3)c12 [Example 229]	0.046
Cn1cc(-c2cc(N3CCC[C@@H](NC(=O)c4ccc(Cl)s4)C3)c3c(N)ncnn23)cn1 [Example 216, (R)-N-(1-(4-amino-7-(1-methyl-1H-pyrazol-4-yl)pyrrolo[2,1-f][1,2,4]triazin-5-yl)piperidin-3-yl)-5-chlorothiophene-2-carboxamide, TFA]	0.026
COC(C(=O)N1CC=C(c2cc(N3CCC[C@@H](NC(=O)c4sc(Cl)cc4OCCN4CCOCC4)C3)c3c(N)ncnn23)C1)C1CC1 (stereo partly drawn) [Example 260, N-((3R)-1-(4-amino-7-(1-(2-cyclopropyl-2-methoxyacetyl)-2,5-dihydro-1H-pyrrol-3-yl)pyrrolo[2,1-f] [1,2,4]triazin-5-yl)piperidin-3-yl)-5-chloro-3-(2-morpholinoethoxy)thiophene-2-carboxamide]	0.048
CS(=O)(=O)c1ccc(-c2cc(N3CCC[C@@H](NC(=O)c4cccc(F)c4)C3)c3c(N)ncnn23)cc1 [Example 53, (R)-N-(1-(4-amino-7-(4-(methylsulfonyl)phenyl)pyrrolo[2,1-f][1,2,4]triazin-5-yl)piperidin-3-yl)-3-fluorobenzamide]	0.015

More lines, now with the values ahead:

IC50 [µM]	Structure (SMILES)
0.006	COc1ccc2[nH]c(C(=O)N[C@@H]3CCCN(c4cc(C5=CCN(C(C)=O)C5)n5ncnc(N)c45)C3)cc2c1 [Example 491, (R)-N-(1-(7-(1-acetyl-2,5-dihydro-1H-pyrrol-3-yl)-4-aminopyrrolo[2,1-f][1,2,4]triazin-5-yl)piperidin-3-yl)-5-methoxy-1H-indole-2-carboxamide]
0.001	Nc1ncnn2c(-c3ccnc(C(F)F)c3)cc(N3CCC[C@@H](NC(=O)c4cc5ccccc5[nH]4)C3)c12 [Example 488, (R)-N-(1-(4-amino-7-(2-(difluoromethyl)pyridin-4-yl)pyrrolo[2,1-f][1,2,4]triazin-5-yl)piperidin-3-yl)-1H-indole-2-carboxamide]
0.003	CN1[C@@H]2CC[C@H]1C[C@H](Oc1cc(Cl)sc1C(=O)N[C@@H]1CCCN(c3cc(-c4cncnc4)n4ncnc(N)c34)C1)C2 [Example 614, N—((R)-1-(4-amino-7-(pyrimidin-5-yl)pyrrolo[2,1-f][1,2,4]triazin-5-yl)piperidin-3-yl)-5-chloro-3-((8-methyl-8-azabicyclo[3.2.1]octan-3-yl)oxy)thiophene-2-carboxamide]
0.023	COc1cc(C(=O)N[C@@H]2CCCN(c3cc(C4=CCN(C(C)=O)C4)n4ncnc(N)c34)C2)ccn1 [Example 716, (R)-N-(1-(7-(1-acetyl-2,5-dihydro-1H-pyrrol-3-yl)-4-aminopyrrolo[2,1-f][1,2,4]triazin-5-yl)piperidin-3-yl)-2-methoxyisonicotinamide]
0.014	CN(C)CCOc1cc(Cl)sc1C(=O)N[C@@H]1CCCN(c2cc(C3=CCN(C(=O)C4CCCOC4)C3)n3ncnc(N)c23)C1 (stereo partly drawn) [Example 909, N-((3R)-1-(4-amino-7-(1-(tetrahydro-2H-pyran-3-carbonyl)-2,5-dihydro-1H-pyrrol-3~yl)pyrrolo[2,1-f][1,2,4]triazin-5-y1)piperidin-3-y1)-5-chloro-3-(2-(dimethylamino)ethoxy)thiophene-2-carboxamide]
0.004	CC(=O)N1CC=C(c2cc(N3CCC[C@@H](NC(=O)c4sc(Cl)cc4OCC4CCCN4C)C3)c3c(N)ncnn23)C1 (single isomer, unassigned) [Example 391]
0.004	CN1CCN(CCOc2cc(Cl)sc2C(=O)N[C@@H]2CCCN(c3cc(-c4ccnc(C(F)F)c4)n4ncnc(N)c34)C2)CC1 [Example 342, (R)—N-(1-(4-amino-7-(2-(difluoromethyl)pyridin-4-yl)pyrrolo[2,1-f][1,2,4]triazin-5-yl)piperidin-3-yl)-5-chloro-3-(2-(4-methylpiperazin-1-yl)ethoxy)thiophene-2-carboxamide]
0.02	Nc1ncnn2c(-c3ccc(OC(F)F)nc3)cc(N3CCC[C@@H](NC(=O)c4ccc(Cl)s4)C3)c12 [Example 538, (R)-N-(1-(4-amino-7-(6-(difluoromethoxy)pyridin-3-yl)pyrrolo[2,1-f][1,2,4]triazin-5-yl)piperidin-3-yl)-5-chlorothiophene-2-carboxamide]
0.121	COC(=O)N1CC=C(c2cc(N3CCC[C@@H](NC(=O)c4cc5cc(F)ccc5[nH]4)C3)c3c(N)ncnn23)C1 [Example 499, methyl (R)-3-(4-amino-5-(3-(5-fluoro-1H-indole-2-carboxamido)piperidin-1-yl)pyrrolo[2,1-f][1,2,4]triazin-7-yl)-2,5-dihydro-1H-pyrrole-1-carboxylate]
0.029	CC(C)(C)OC(=O)N1CC=C(c2ccc(C(=O)N[C@@H]3CCCN(c4cc(-c5ccnc(C(F)F)c5)n5ncnc(N)c45)C3)s2)C1 [Example 546, tert-butyl (R)-3-(5-((1-(4-amino-7-(2-(difluoromethyl)pyridin-4-yl)pyrrolo[2,1-f][1,2,4]triazin-5-yl)piperidin-3-yl)carbamoyl)thiophen-2-yl)-2,5-dihydro-1H-pyrrole-1-carboxylate]
0.002	CN1CCC(Oc2cc(Cl)sc2C(=O)N[C@@H]2CCCN(c3cc(-c4ccc(C(N)=O)c(F)c4)n4ncnc(N)c34)C2)CC1 [Example 589, (R)-N-(1-(4-amino-7-(4-carbamoyl-3-fluorophenyl)pyrrolo[2,1-f][1,2,4]triazin-5-yl)piperidin-3-yl)-5-chloro-3-((1-methylpiperidin-4-yl)oxy)thiophene-2-carboxamide]
0.004	NCCOc1cc(C(F)F)sc1C(=O)N[C@@H]1CCCN(c2cc(-c3ccnc(C(F)F)c3)n3ncnc(N)c23)C1 [Example 326, (R)-N-(1-(4-amino-7-(2-(difluoromethyl)pyridin-4-yl)pyrrolo[2,1-f][1,2,4]triazin-5-yl)piperidin-3-yl)-3-(2-aminoethoxy)-5-(difluoromethyl)thiophene-2-carboxamide]
0.006	CCn1cc(-c2cc(N3CCC[C@@H](NC(=O)c4ccc(Cl)s4)C3)c3c(N)ncnn23)ccc1=O [Example 532, (R)-N-(1-(4-amino-7-(1-ethyl-6-oxo-1,6-dihydropyridin-3-yl)pyrrolo[2,1-f][1,2,4]triazin-5-yl)piperidin-3-yl)-5-chlorothiophene-2-carboxamide]
0.007	COC(=O)N1CC=C(c2cc(N3CCC[C@@H](NC(=O)c4sc5ccc(F)cc5c4OC4CCNCC4)C3)c3c(N)ncnn23)C1 [Example 686, methyl (R)-3-(4-amino-5-(3-(5-fluoro-3-(piperidin-4-yloxy)benzo[b]thiophene-2-carboxamido)piperidin-1-yl)pyrrolo[2,1-f][1,2,4]triazin-7-yl)-2,5-dihydro-1H-pyrrole-1-carboxylate]
0.022	CC(=O)N1CC=C(c2cc(N3CCC[C@@H](NC(=O)c4sc5ccncc5c4OCCN(C)C)C3)c3c(N)ncnn23)C1 [Example 669, (R)-N-(1-(7-(1-acetyl-2,5-dihydro-1H-pyrrol-3-yl)-4-aminopyrrolo[2,1-f][1,2,4]triazin-5-yl)piperidin-3-yl)-3-(2-(dimethylamino)ethoxy)thieno [3,2-c]pyridine-2-carboxamide]
